Values quoted from earlier work in patent US20220143119A1, “CROTON LECHLERI COMPOSITIONS FOR USE IN THE TREATMENT OF SKIN CANCER” (ALPHYN BIOLOGICS, LLC, priority 2019, published 2022).

Test system: human melanoma SK23

COc1ccc2c(=O)oc3c(OC)cc(CCN(C)C)c4c(=O)oc1c2c34 [taspine]
inhibition against human melanoma SK23: exhibits inhibition
